In patent US11524966B1 (Valo Early Discovery, Inc., priority 2017, dated 2022):

Target: T1, USP25 (USP25-His6, Boston Biochem E-546) (Homo sapiens, UniProt Q9UHP3)
T1 construct: His6; purchased Boston Biochem E-546
T1 sequence (Q9UHP3 1-1055): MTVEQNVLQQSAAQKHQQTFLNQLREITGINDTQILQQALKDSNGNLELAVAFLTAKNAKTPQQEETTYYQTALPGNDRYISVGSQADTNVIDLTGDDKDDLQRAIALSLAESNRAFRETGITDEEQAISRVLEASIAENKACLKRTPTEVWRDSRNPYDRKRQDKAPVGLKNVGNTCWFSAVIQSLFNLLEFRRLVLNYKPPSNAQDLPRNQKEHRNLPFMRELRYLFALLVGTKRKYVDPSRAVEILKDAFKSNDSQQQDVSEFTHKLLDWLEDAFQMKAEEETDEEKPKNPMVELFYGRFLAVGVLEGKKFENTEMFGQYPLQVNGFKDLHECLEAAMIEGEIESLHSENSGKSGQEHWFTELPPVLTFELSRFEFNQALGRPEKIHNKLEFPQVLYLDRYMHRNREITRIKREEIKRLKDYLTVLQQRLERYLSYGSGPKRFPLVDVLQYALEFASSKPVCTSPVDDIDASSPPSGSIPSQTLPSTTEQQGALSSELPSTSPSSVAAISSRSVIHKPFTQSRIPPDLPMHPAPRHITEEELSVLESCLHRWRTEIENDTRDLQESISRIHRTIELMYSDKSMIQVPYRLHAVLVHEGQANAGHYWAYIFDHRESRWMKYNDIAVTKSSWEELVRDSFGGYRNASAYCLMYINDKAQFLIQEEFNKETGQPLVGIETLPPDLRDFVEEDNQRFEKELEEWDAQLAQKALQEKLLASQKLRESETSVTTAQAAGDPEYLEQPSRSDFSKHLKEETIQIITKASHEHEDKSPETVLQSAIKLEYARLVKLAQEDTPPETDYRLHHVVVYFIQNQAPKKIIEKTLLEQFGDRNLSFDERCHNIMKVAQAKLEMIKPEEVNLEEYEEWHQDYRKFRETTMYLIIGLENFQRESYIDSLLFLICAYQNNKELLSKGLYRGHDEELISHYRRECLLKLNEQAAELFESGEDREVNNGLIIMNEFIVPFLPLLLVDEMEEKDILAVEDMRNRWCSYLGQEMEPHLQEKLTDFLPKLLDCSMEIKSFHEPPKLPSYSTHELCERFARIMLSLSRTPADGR
Assay: Ubiquitin-Rhodamine 110 Assay for USP25 Activity, Example A-2
Assay type: biochemical
Details: Ubiquitin-Rhodamine 110 assay, Example A-2; read-out: USP25 A-2 IC50 range
How it was run: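 75 pM USP25-His6 was preincubated 30 min with compound (10-point 3-fold series, 25 μM–1.3 nM) in pH 8.0 Tris buffer with BME, BGG and Triton X-100. Then 25 nM Ub-Rh110 (<<Km) was added for 45 min at room temperature, stopped with citric acid, fluorescence read at 485/535 nm, IC50 by 4-parameter fit.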

SMILES	IC50 [nM]
Cc1ccc2c(N)c(C(=O)N[C@H]3COc4cc(N5C[C@@H](N)[C@@]6(CCO6)C5)ccc4C3)sc2n1 [Example 339, 3-amino-N-[(3R)-7-[(4R,8R)-8-amino-1-oxa-6-azaspiro[3.4]octan-6-yl]-3,4-dihydro-2H-1-benzopyran-3-yl]-6-methylthieno[2,3-b]pyridine-2-carboxamide]	200 to 2000
COC[C@@H]1CN(c2ccc3c(n2)CC[C@H](NC(=O)c2sc4nc(C)cnc4c2N)C3)C[C@@H]1N [Example 298, 7-amino-N-[(6S)-2-[(3R,4R)-3-amino-4-(methoxymethyl)pyrrolidin-1-yl]-5,6,7,8-tetrahydroquinolin-6-yl]-3-methylthieno[2,3-b]pyrazine-6-carboxamide]	> 2000
Cc1ccc2c(N)c(C(=O)N[C@H]3COc4cc(N5CC[C@@H](N)C5)ccc4C3)sc2n1 [Example 288, 3-amino-N-[(3R)-7-[(3R)-3-aminopyrrolidin-1-yl]-3,4-dihydro-2H-1-benzopyran-3-yl]-6-methylthieno[2,3-b]pyridine-2-carboxamide]	200 to 2000
COC[C@H]1CN(c2ccc3c(n2)CC[C@H](NC(=O)c2sc4nc(C)ccc4c2N)C3)C[C@@H]1N [Example 327, 3-amino-N-[(6S)-2-[(3R,4S)-3-amino-4-(methoxymethyl)pyrrolidin-1-yl]-5,6,7,8-tetrahydroquinolin-6-yl]-6-methylthieno[2,3-b]pyridine-2-carboxamide]	200 to 2000
Cc1ccc2c(N)c(C(=O)N[C@H]3COc4cc(N5C[C@@H](N)[C@H](C(F)F)C5)ccc4C3)sc2n1 [Example 295, 3-amino-N-[(3R)-7-[(3S,4R)-3-amino-4-(difluoromethyl)pyrrolidin-1-yl]-3,4-dihydro-2H-1-benzopyran-3-yl]-6-methylthieno[2,3-b]pyridine-2-carboxamide]	50 to 200
COC[C@H]1C[C@H](N)CN1c1ccc2c(c1)OC[C@H](NC(=O)c1sc3nc(C)ccc3c1N)C2 [Example 261, 3-amino-N-[(3R)-7-[(2R,4S)-4-amino-2-(methoxymethyl)pyrrolidin-1-yl]-3,4-dihydro-2H-1-benzopyran-3-yl]-6-methylthieno[2,3-b]pyridine-2-carboxamide]	50 to 200
Cc1ccc2c(N)c(C(=O)N[C@H]3COc4cc(N5C[C@H](N)[C@]6(CCCO6)C5)ccc4C3)sc2n1 [Example 307, 3-amino-N-[(3R)-7-[(5S,9S)-9-amino-1-oxa-7-azaspiro[4.4]nonan-7-yl]-3,4-dihydro-2H-1-benzopyran-3-yl]-6-methylthieno[2,3-b]pyridine-2-carboxamide]	200 to 2000
CN[C@H]1CN(c2ccc3c(n2)CC[C@H](NC(=O)c2sc4nc(C)ccc4c2N)C3)C[C@@H]1OC [Example 311, 3-amino-N-[(6S)-2-[(3S,4S)-3-methoxy-4-(methylamino)pyrrolidin-1-yl]-5,6,7,8-tetrahydroquinolin-6-yl]-6-methylthieno[2,3-b]pyridine-2-carboxamide]	> 2000
CO[C@]1(C)CN(c2ccc3c(n2)CC[C@H](NC(=O)c2sc4nc(C)cnc4c2N)C3)C[C@H]1N [Example 280, 7-amino-N-[(6S)-2-[(3R,4R)-4-amino-3-methoxy-3-methylpyrrolidin-1-yl]-5,6,7,8-tetrahydroquinolin-6-yl]-3-methylthieno[2,3-b]pyrazine-6-carboxamide]	> 2000
CO[C@@H]1CN(c2ccc3c(n2)CC[C@H](NC(=O)c2sc4nc(C)ccc4c2N)C3)C[C@@H]1N [Example 269, 3-amino-N-[(6S)-2-[(3S,4R)-3-amino-4-methoxypyrrolidin-1-yl]-5,6,7,8-tetrahydroquinolin-6-yl]-6-methylthieno[2,3-b]pyridine-2-carboxamide]	> 2000
Cc1ccc2c(N)c(C(=O)N[C@H]3CCc4nc(N5C[C@H]6NCCC(F)(F)[C@H]6C5)ccc4C3)sc2n1 [Example 329, N-[(6S)-2-[(4aS,7aS)-4,4-difluoro-octahydro-1H-pyrrolo[3,4-b]pyridin-6-yl]-5,6,7,8-tetrahydroquinolin-6-yl]-3-amino-6-methylthieno[2,3-b]pyridine-2-carboxamide]	200 to 2000
Cc1ccc2c(N)c(C(=O)N[C@H]3COc4cc(N5C[C@@H](N)[C@@]6(CCCO6)C5)ccc4C3)sc2n1 [Example 308, 3-amino-N-[(3R)-7-[(5R,9R)-9-amino-1-oxa-7-azaspiro[4.4]nonan-7-yl]-3,4-dihydro-2H-1-benzopyran-3-yl]-6-methylthieno[2,3-b]pyridine-2-carboxamide]	200 to 2000
COC[C@@]1(C)CN(c2ccc3c(n2)CC[C@H](NC(=O)c2sc4nc(C)ccc4c2N)C3)CC1N (stereo in doubt) [Example 343, 3-amino-N-[(6S)-2-[(3S,4S)-4-amino-3-(methoxymethyl)-3-methylpyrrolidin-1-yl]-5,6,7,8-tetrahydroquinolin-6-yl]-6-methylthieno[2,3-b]pyridine-2-carboxamide]	200 to 2000
CO[C@H]1[C@H](N)CN(c2ccc3c(c2)OC[C@H](NC(=O)c2sc4nc(C)ccc4c2N)C3)[C@@H]1C [Example 284, 3-amino-N-[(3R)-7-[(2R,3S,4R)-4-amino-3-methoxy-2-methylpyrrolidin-1-yl]-3,4-dihydro-2H-1-benzopyran-3-yl]-6-methylthieno[2,3-b]pyridine-2-carboxamide]	50 to 200
CN[C@H]1CN(c2ccc3c(n2)CC[C@H](NC(=O)c2sc4nc(C)cc(C)c4c2N)C3)C[C@@H]1OC [Example 312, 3-amino-N-[(6S)-2-[(3S,4S)-3-methoxy-4-(methylamino)pyrrolidin-1-yl]-5,6,7,8-tetrahydroquinolin-6-yl]-4,6-dimethylthieno[2,3-b]pyridine-2-carboxamide]	> 2000
COC[C@@H]1C[C@H](N)CN1c1ccc2c(c1)OC[C@H](NC(=O)c1sc3nc(C)ccc3c1N)C2 [Example 263, 3-amino-N-[(3R)-7-[(2S,4S)-4-amino-2-(methoxymethyl)pyrrolidin-1-yl]-3,4-dihydro-2H-1-benzopyran-3-yl]-6-methylthieno[2,3-b]pyridine-2-carboxamide]	50 to 200
Cc1ccc2c(N)c(C(=O)N[C@H]3COc4cc(N5CCC6(CNC6)C5)ccc4C3)sc2n1 [Example 306, 3-amino-N-[(3R)-7-{2,6-diazaspiro[3.4]octan-6-yl}-3,4-dihydro-2H-1-benzopyran-3-yl]-6-methylthieno[2,3-b]pyridine-2-carboxamide]	200 to 2000
COC[C@@H]1CN(c2nc3c(cc2F)C[C@H](NC(=O)c2sc4nc(C)ccc4c2N)CC3)C[C@@H]1N (single isomer, unassigned) [Example 302]	200 to 2000
COC[C@H]1CN(c2cc(F)c3c(c2F)OC[C@H](NC(=O)c2sc4nc(C)cc(C)c4c2N)C3)C[C@H]1N [Example 278, 3-amino-N-[(3R)-7-[(3S,4S)-3-amino-4-(methoxymethyl)pyrrolidin-1-yl]-5,8-difluoro-3,4-dihydro-2H-1-benzopyran-3-yl]-4,6-dimethylthieno[2,3-b]pyridine-2-carboxamide]	50 to 200
Cc1ccc2c(N)c(C(=O)N[C@H]3COc4cc(N5C[C@H](C(F)F)[C@@H](N)C5)ccc4C3)sc2n1 [Example 294, 3-amino-N-[(3R)-7-[(3R,4S)-3-amino-4-(difluoromethyl)pyrrolidin-1-yl]-3,4-dihydro-2H-1-benzopyran-3-yl]-6-methylthieno[2,3-b]pyridine-2-carboxamide]	50 to 200
Cc1ccc2c(N)c(C(=O)N[C@H]3CCc4nc(N5C[C@H](OC(C)C)[C@@H](N)C5)ccc4C3)sc2n1 [Example 320]	> 2000
